Measured values taken from patent US6046235A, “Sulfur-containing amino acid derivatives” (Santen Pharmaceutical Co., Ltd., priority 1996, dated 2000).

target: T1, LTA4 hydrolase (Cavia porcellus, UniProt P19602); assay: LTA4 hydrolase inhibition (LTB4 formed from LTA4, guinea pig lung enzyme preparation); format: biochemical; conditions: Table 2; guinea pig lung enzyme preparation; LTA4 63 μM; 37° C., one minute; pH 7.8; read-out: IC50 (concentration required to inhibit LTA4 hydrolase by 50%)
T1 construct: Lungs were excised from a Hartley guinea pig; from tissue; host or cells: Hartley guinea pig lung, 100,000×g supernatant, 40-70% ammonium sulfate fraction, dialyzed
T1 sequence (P19602 1-611): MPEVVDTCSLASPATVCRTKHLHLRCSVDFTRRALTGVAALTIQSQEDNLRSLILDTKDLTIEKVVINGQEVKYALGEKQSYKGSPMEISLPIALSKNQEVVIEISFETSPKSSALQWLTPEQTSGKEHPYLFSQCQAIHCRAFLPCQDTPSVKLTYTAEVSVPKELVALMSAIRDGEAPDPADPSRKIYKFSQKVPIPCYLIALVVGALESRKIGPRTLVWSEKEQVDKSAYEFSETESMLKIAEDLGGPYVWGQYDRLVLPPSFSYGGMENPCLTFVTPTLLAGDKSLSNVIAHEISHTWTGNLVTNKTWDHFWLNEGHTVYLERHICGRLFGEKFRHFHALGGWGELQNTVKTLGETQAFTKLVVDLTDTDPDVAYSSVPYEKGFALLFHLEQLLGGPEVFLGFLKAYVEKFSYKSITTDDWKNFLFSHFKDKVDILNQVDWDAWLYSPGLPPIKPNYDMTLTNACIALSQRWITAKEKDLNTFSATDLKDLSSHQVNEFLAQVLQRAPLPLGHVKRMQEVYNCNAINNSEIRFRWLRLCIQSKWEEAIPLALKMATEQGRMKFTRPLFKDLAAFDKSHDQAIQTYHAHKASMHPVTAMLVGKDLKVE
Protocol: Effects of the present compounds on LTA4 hydrolase were examined according to the method described in the literature.
Lungs were excised from a Hartley guinea pig (body weight: 330 g). The lungs were homogenized in phosphoric acid buffer (50 mM, pH 7.4, containing 1 mM ethylenediaminetetraacetic acid (EDTA) and 1 mM dithiothreitol (DTT) having weight three times that of the lungs under ice-cooling. The homogenate was centrifuged at low speed (800×g) for 20 minutes, centrifuged at high speed (10,000×g) for 20 minutes and ultracentrifuged (100,000×g) for 60 minutes to give a supernatant. The supernatant was brought to 40% saturation by adding a saturated aqueous ammonium sulfate solution (pH 7.0-7.2, containing 1 mM DTT) dropwise under ice-cooling and centrifuged at high speed (10,000×g) for 20 minutes. The resulting supernatant was brought to 70% saturation by adding a saturated aqueous ammonium sulfate solution (pH 7.0-7.2, containing 1 mM DTT) dropwise and centrifuged at high speed (10,000×g) for 20 minutes. The obtained pellet was dissolved in 2 ml of Tris-acetic acid buffer (20 mM, pH 7.8, containing 1 mM DTT) and dialyzed in 2 liters of the solution to give the enzyme preparation.
LTA4 used, which is the substrate, was prepared by hydrolyzing LTA4 methyl ester and dissolved in ethanol.
In order to examine effects of the present compounds on the enzyme preparation, reactions were performed under the following condition using mixed solutions consisting of the composition shown in Table 1.
HEPES buffer 50 mM, pH 7.8
Enzyme preparation 0.4-0.6 mg protein
Aqueous DTT solution 3 mM
The above-mentioned solution (50 μl ) was incubated at 37° C. for one minute. To the reaction mixture was added 100 μl of a mixed liquid of acetonitrile-ethanol-acetic acid (150:50:3, volume ratio) under ice-cooling. The mixture was allowed to stand at -20° C. for 30 minutes and centrifuged at high speed (10,000×g) for five minutes to give a supernatant. An amount of LTB4 produced in the supernatant was measured by high-speed liquid chromatography.
The degree of the inhibitory effect of each test compound on LTA4 hydrolase is expressed by the inhibition rate calculated by the following equation. [formula]
A: amount of LTB4 formed in the absence of the test compound
B: amount of LTB4 formed in the presence of the test compound
Experiments were carried out under the same conditions as those of the above-mentioned "Pharmacological Test".

| Compound | IC50 [µM] |
| --- | --- |
| CCc1ccc(CSC[C@H](NC(=O)[C@H](C)CSC(=O)c2ccccc2)C(=O)O)cc1 [Compound No. 1-8, (2R)-2-[(2S)-3-(Benzoylthio)-2-methylpropionylamino]-3-(4-ethylbenzylthio)propionic acid] | 0.12 |
| CCCc1ccc(CSC[C@H](NC(=O)[C@H](C)CSC(=O)c2ccccc2)C(=O)O)cc1 [Compound No. 1-9, (2R)-2-[(2S)-3-(Benzoylthio)-2-methylpropionylamino]-3-(4-propylbenzylthio)propionic acid] | 0.17 |
| CC(C)c1ccc(CSC[C@H](NC(=O)[C@H](C)CSC(=O)c2ccccc2)C(=O)O)cc1 [Compound No. 1-10, (2R)-2-[(2S)-3-(Benzoylthio)-2-methylpropionylamino]-3-(4-isopropylbenzylthio)propionic acid] | 0.12 |
| C[C@H](CSC(=O)c1ccccc1)C(=O)N[C@@H](CSCc1ccc(C(C)(C)C)cc1)C(=O)O [Compound No. 1-11, (2R)-2-[(2S)-3-(Benzoylthio)-2-methylpropionylamino]-3-(4-tert-butylbenzylthio) propionic acid] | 0.032 |
| C[C@H](CSC(=O)c1ccccc1)C(=O)N[C@@H](CSCc1ccc(C(F)(F)F)cc1)C(=O)O [Compound No. 1-13, (2R)-2-[(2S)-3-(Benzoylthio)-2-methylpropionylamino]-3-(4-trifluoromethylbenzylthio)propionic acid] | 0.1 |
| CSc1ccc(CSC[C@H](NC(=O)[C@H](C)CSC(=O)c2ccccc2)C(=O)O)cc1 [Compound No. 1-16, (2R)-2-[(2S)-3-(Benzoylthio)-2-methylpropionylamino]-3-(4-methylthiobenzylthio)propionic acid] | 0.11 |
| C[C@H](CSC(=O)c1ccccc1)C(=O)N[C@@H](CSCc1ccc(OC(F)(F)F)cc1)C(=O)O [Compound No. 1-18, (2R)-2-[(2S)-3-(Benzoylthio)-2-methylpropionylamino]-3-(4-trifluoromethoxybenzylthio)propionic acid] | 0.1 |
| C[C@H](CSC(=O)c1ccccc1)C(=O)N[C@@H](CSCc1ccc(Cl)cc1)C(=O)O [Compound No. 1-23, (2R)-2-[(2S)-3-(Benzoylthio)-2-methylpropionylamino]-3-(4-chlorobenzylthio)propionic acid] | 0.3 |
| C[C@H](CSC(=O)c1ccccc1)C(=O)N[C@@H](CSCc1ccc(Br)cc1)C(=O)O [Compound No. 1-24, (2R)-2-[(2S)-3-(Benzoylthio)-2-methylpropionylamino]-3-(4-bromobenzylthio)propionic acid] | 0.31 |
| C[C@H](CSC(=O)c1ccccc1)C(=O)N[C@@H](CSCc1ccc(I)cc1)C(=O)O [Compound No. 1-25, (2R)-2-[(2S)-3-(Benzoylthio)-2-methylpropionylamino]-3-(4-iodobenzylthio)propionic acid] | 0.051 |
| C[C@H](CSC(=O)c1ccccc1)C(=O)N[C@@H](CSCc1ccc(S(C)(=O)=O)cc1)C(=O)O [Compound No. 1-26, (2R)-2-[(2S)-3-(Benzoylthio)-2-methylpropionylamino]-3-(4-methylsulfonylbenzylthio)propionic acid] | 0.2 |
| C[C@H](CSC(=O)c1ccccc1)C(=O)N[C@@H](CSCc1ccc([N+](=O)[O-])cc1)C(=O)O [Compound No. 1-28, (2R)-2-[(2S)-3-(Benzoylthio)-2-methylpropionylamino]-3-(4-nitrobenzylthio)propionic acid] | 0.29 |
| CCc1ccc(CSC[C@H](NC(=O)[C@H](C)CS)C(=O)O)cc1 [Compound No. 2-8, (2R)-3-(4-Ethylbenzylthio)-2-[(2S)-3-mercapto-2-methylpropionylamino]propionic acid] | 0.28 |
| CCCc1ccc(CSC[C@H](NC(=O)[C@H](C)CS)C(=O)O)cc1 [Compound No. 2-9, (2R)-2-[(2S)-3-Mercapto-2-methylpropionylamino]-3-(4-propylbenzylthio)propionic acid] | 0.072 |
| CC(C)c1ccc(CSC[C@H](NC(=O)[C@H](C)CS)C(=O)O)cc1 [Compound No. 2-10, (2R)-3-(4-Isopropylbenzylthio)-2-[(2S)-3-mercapto-2-methylpropionylamino]propionic acid] | 0.2 |
| C[C@H](CS)C(=O)N[C@@H](CSCc1ccc(C(C)(C)C)cc1)C(=O)O [Compound No. 2-11, (2R)-3-(4-tert-Butylbenzylthio)-2-[(2S)-3-mercapto-2-methylpropionylamino]propionic acid] | 0.024 |
| CC(CS)C(=O)N[C@@H](CSCc1ccc(C(C)(C)C)cc1)C(=O)O (stereo partly drawn) [Compound No. 2-12, (2R)-3-(4-tert-Butylbenzylthio)-2-[(2RS)-3-mercapto-2-5 methylpropionylamino]propionic acid] | 0.058 |
| C[C@H](CS)C(=O)N[C@@H](CSCc1ccc(C(F)(F)F)cc1)C(=O)O [Compound No. 2-13, (2R)-2-[(2S)-3-Mercapto-2-methylpropionylamino]-3-(4-trifluoromethylbenzylthio)propionic acid] | 0.14 |
| CSc1ccc(CSC[C@H](NC(=O)[C@H](C)CS)C(=O)O)cc1 [Compound No. 2-16, (2R)-2-[(2S)-3-Mercapto-2-methylpropionylamino]-3-(4-methylthiobenzylthio)propionic acid] | 0.046 |
| C[C@H](CS)C(=O)N[C@@H](CSCc1ccc(I)cc1)C(=O)O [Compound No. 2-25, (2R)-3-(4-Iodobenzylthio)-2-[(2S)-3-mercapto-2-methylpropionylamino]propionic acid] | 0.015 |
| C[C@H](CS)C(=O)N[C@@H](CSCc1ccc(S(C)(=O)=O)cc1)C(=O)O [Compound No. 2-26, (2R)-2-[(2S)-3-Mercapto-2-methylpropionylamino]-3-(4-methylsulfonylbenzylthio)propionic acid] | 0.16 |
| CC(C)c1ccc(C(C)SC[C@H](NC(=O)[C@H](C)CS)C(=O)O)cc1 (stereo partly drawn) [Compound No. 2-30, (2R)-2-[(2S)-3-Mercapto-2-methylpropionylamino]-3-[(α-methyl-4-isopropyl)benzylthio]propionic acid] | 0.055 |
| CC(C)c1ccc(C(C)(C)SC[C@H](NC(=O)[C@H](C)CS)C(=O)O)cc1 [Compound No. 2-32, (2R)-2-[(2S)-3-Mercapto-2-methylpropionylamino]-3-[(α,α-dimethyl-4-isopropyl)benzylthio]propionic acid] | 0.025 |
| CCC(SC[C@H](NC(=O)[C@H](C)CS)C(=O)O)c1ccc(C(C)C)cc1 (stereo partly drawn) [Compound No. 2-33, (2R)-3-[(α-Ethyl-4-isopropyl)benzylthio]-2-[(2S)-3-mercapto-2-methylpropionylamino]propionic acid] | 0.067 |
| CC(SC[C@H](NC(=O)[C@H](C)CS)C(=O)O)c1ccc(C(C)(C)C)cc1 (stereo partly drawn) [Compound No. 2-34, (2R)-3-[(4-tert-Butyl-α-methyl)benzylthio]-2-[(2R)-3-mercapto-2-methylpropionylamino]propionic acid] | 0.068 |
| C[C@H](CS)C(=O)N[C@@H](CSCc1ccc(C2CCCCC2)cc1)C(=O)O [Compound No. 2-35, (2R)-3-(4-Cyclohexylbenzylthio)-2-[(2S)-3-mercapto-2-methylpropionylamino]propionic acid] | 0.079 |
| C[C@H](CS)C(=O)N[C@@H](CSC(C)(C)c1ccc(C2CCCCC2)cc1)C(=O)O [Compound No. 2-39, (2R)-3-[(4-Cyclohexyl-α,α-dimethyl)benzylthio]-2-[(2S)-3-mercapto-2-methylpropionylamino]propionic acid] | 0.055 |
